Measured values: US20140051735A1, “USE OF N-PHENYLETHYLPYRAZOLE CARBOXAMIDE DERIVATIVES OR SALTS THEREOF FOR CONTROLLING POWDERY MILDEW PRIMARY INFECTIONS” (BAYER INTELLECTUAL PROPERTY GMBH, priority 2010, published 2014)

How the values were obtained:
[1] = test system: powdery mildew primary infections; test: controlling powdery mildew primary infections in perennial crops after application prior to the end of the previous vegetative cycle; assay type: in vivo; details: in the year of the application and also in the year after
powdery mildew species = details: on different crops; cited from earlier work

COC(c1ccc(Cl)cc1Cl)C(C)NC(=O)c1cn(C)nc1C(F)F (stereo not drawn) [3-difluoromethyl-1-methyl-1H-pyrazole-4-carboxylic acid [2-(2,4-dichlorophenyl)-2-methoxy-1-methyl-ethyl]-amide]
infection of new growing shoots and leaves [1]: delayed
number of early infected shoots [1]: significantly reduced

O=C(NCCc1ncc(C(F)(F)F)cc1Cl)c1ccccc1C(F)(F)F [fluopyram]
efficacy against powdery mildew species (powdery mildew species): high level of efficacy
